Data published in paper PMC11555678, “Improved Broad Spectrum Antifungal Drug Synergies with Cryptomycin, a Cdc50-Inspired Antifungal Peptide” (ACS Infectious Diseases, 2024).
Like-named read-outs stand apart in the source and are kept apart here.

Key:
[1] = tested on: C. neoformans Crm1^OE; test: microbe, parasite or virus in culture; assay type: cell-based, Cryptococcus neoformans; settings: Cryptococcus neoformans, 48 h
Outline: (§1)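 Broth microdilution per CLSI M27 in RPMI1640, compounds serially diluted 2-fold from DMSO stock. Overnight YPD cultures washed, resuspended and adjusted to 5000 cfu/mL in RPMI as inoculum. Plates incubated 2 days at 37 °C.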

[2] = tested on: C. neoformans H99; test: microbe, parasite or virus in culture; assay type: cell-based, Cryptococcus neoformans; settings: Cryptococcus neoformans, H99, 48 h
Outline: as §1

[3] = tested on: C. neoformans MRL862; test: microbe, parasite or virus in culture; assay type: cell-based, Cryptococcus neoformans; settings: Cryptococcus neoformans, MRL862; compound alone; RPMI1640, 37 °C, 48 h; read-out: MIC
Outline: as §1

[4] = tested on: C. neoformans apt1Δ; test: microbe, parasite or virus in culture; assay type: cell-based, Cryptococcus neoformans; settings: Cryptococcus neoformans, 48 h
Outline: as §1

[5] = tested on: C. neoformans apt2Δ; test: microbe, parasite or virus in culture; assay type: cell-based, Cryptococcus neoformans; settings: Cryptococcus neoformans, 48 h
Outline: as §1

[6] = tested on: C. neoformans apt3Δ; test: microbe, parasite or virus in culture; assay type: cell-based, Cryptococcus neoformans; settings: Cryptococcus neoformans, 48 h
Outline: as §1

[7] = tested on: C. neoformans apt4Δ; test: microbe, parasite or virus in culture; assay type: cell-based, Cryptococcus neoformans; settings: Cryptococcus neoformans, 48 h
Outline: as §1

[8] = tested on: C. neoformans cdc50Δ; test: microbe, parasite or virus in culture; assay type: cell-based, Cryptococcus neoformans; settings: Cryptococcus neoformans, 48 h
Outline: as §1

[9] = tested on: C. neoformans crm1Δ; test: microbe, parasite or virus in culture; assay type: cell-based, Cryptococcus neoformans; settings: Cryptococcus neoformans, 48 h
Outline: as §1

[10] = tested on: C. glabrata 2001; test: microbe, parasite or virus in culture; assay type: cell-based, Candida glabrata; settings: Nakaseomyces glabratus, 2001; compound alone; RPMI1640, 37 °C, 48 h; read-out: MIC
Outline: as §1

[11] = tested on: C. glabrata FKS1-S629P; test: microbe, parasite or virus in culture; assay type: cell-based, Candida glabrata; settings: Nakaseomyces glabratus, FKS1S629P, 48 h
Outline: as §1

[12] = tested on: C. glabrata FKS2-S663P; test: microbe, parasite or virus in culture; assay type: cell-based, Candida glabrata; settings: Nakaseomyces glabratus, FKS2S663P, 48 h
Outline: as §1

[13] = tested on: C. neoformans H99; assay type: cell-based, Cryptococcus neoformans; settings: for MIC of antifungal in combination with (FITC)KKOO / MIC of antifungal in combination with KKOO / MIC of antifungal in combination with KKOO-NH2: RPMI1640, 37 °C; for MIC of antifungal in combination with KKOO / MIC of antifungal in combination with KKOO-NH2: 48 h
Protocol: All microdilution assays with fungi were carried out in accordance with CLSI protocols from M27 for yeasts and M38 for filamentous fungi, respectively, unless otherwise specified.[64],[65] Briefly, 96-well plates were charged with RPMI1640 media, with operating volume in the first column, 200 μL, and half operating volume, 100 μL, in the remaining wells. Drug stock solution in DMSO was aliquoted into the first well in each row. Half of the volume in the dosed well was serially diluted 2-fold until column 11. Column 11 was used as the negative growth control, and column 12 was used as the positive growth control. ON yeast cultures in YPD were washed twice in DD-H2O, resuspended in PBS, and adjusted to 5000 cfu/mL in RPMI. The 96-well plate was inoculated with 100 μL aliquots of cell suspension per well. […]
(§2) To assess drug synergy, the initial media charged to the plate contained the peptide at twice the final operating concentration; the remaining processing steps were identical to the MIC experiment. Upon addition of 100 μL of inoculant, the final operating concentration was achieved. Control MIC plates were prepared alongside drug synergy plates to account for the day-to-day variability in any individual MIC. FIC index is computed using eq 1. All MIC assays and drug synergy assays were completed with two technical replicates per 96-well plate and a minimum of two biological replicates per drug combination. If a difference in MIC between the two technical replicates on the plate were observed, only the higher concentration was reported as the MIC to reduce the possibility of type 1 error (false positive) [drawing 1] 1

[14] = tested on: C. glabrata 2001; assay type: cell-based, Candida glabrata; settings: RPMI1640, 37 °C, 48 h
Protocol: All microdilution assays with fungi were carried out in accordance with CLSI protocols from M27 for yeasts and M38 for filamentous fungi, respectively, unless otherwise specified.[64],[65] Briefly, 96-well plates were charged with RPMI1640 media, with operating volume in the first column, 200 μL, and half operating volume, 100 μL, in the remaining wells. Drug stock solution in DMSO was aliquoted into the first well in each row. Half of the volume in the dosed well was serially diluted 2-fold until column 11. Column 11 was used as the negative growth control, and column 12 was used as the positive growth control. ON yeast cultures in YPD were washed twice in DD-H2O, resuspended in PBS, and adjusted to 5000 cfu/mL in RPMI. The 96-well plate was inoculated with 100 μL aliquots of cell suspension per well. Plates were incubated at 37 °C for 2 days.
as §2

CCC(C)n1ncn(-c2ccc(N3CCN(c4ccc(OCC5COC(Cn6cncn6)(c6ccc(Cl)cc6Cl)O5)cc4)CC3)cc2)c1=O (stereo not shown) [ITR, itraconazole]
0.125 µg/mL: MIC [2] | MIC [5] | MIC [11] | MIC [12] | MIC of antifungal in combination with (FITC)KKOO ([13]; +0 μg/mL (FITC)KKOO) | MIC of antifungal in combination with KKOO ([13]; +0 μg/mL KKOO (control)) | MIC of antifungal in combination with KKOO-NH2 ([13]; +0 μg/mL KKOO-NH2 (control)) | MIC of antifungal in combination with KKOO-NH2 ([14]; +2 μg/mL KKOO-NH2) | MIC of antifungal in combination with KKOO ([14]; +2 μg/mL KKOO)
8 fold: reduction of MIC of antifungal ([13]; in the presence of 2 μg/mL KKOO-NH2, 48 h)
0.062 µg/mL: MIC [6] | MIC [7] | MIC [9] | MIC of antifungal in combination with KKOO ([13]; +1 μg/mL KKOO) | MIC of antifungal in combination with (FITC)KKOO ([13]; +4 μg/mL (FITC)KKOO) | MIC of antifungal in combination with KKOO ([14]; +4 μg/mL KKOO) | MIC of antifungal in combination with KKOO ([14]; +8 μg/mL KKOO)
0.031 µg/mL: MIC [3] | MIC of antifungal in combination with KKOO-NH2 ([13]; +1 μg/mL KKOO-NH2) | MIC of antifungal in combination with (FITC)KKOO ([13]; +8 μg/mL (FITC)KKOO) | MIC of antifungal in combination with KKOO-NH2 ([14]; +4 μg/mL KKOO-NH2)
0.002 µg/mL: MIC [8]
0.016 µg/mL: MIC [1] | MIC of antifungal in combination with KKOO-NH2 ([13]; +2 μg/mL KKOO-NH2) | MIC of antifungal in combination with KKOO ([13]; +2 μg/mL KKOO) | MIC of antifungal in combination with KKOO ([13]; +4 μg/mL KKOO)
0.008 µg/mL: MIC of antifungal in combination with KKOO-NH2 ([13]; +4 μg/mL KKOO-NH2) | MIC of antifungal in combination with KKOO ([13]; +8 μg/mL KKOO)
0.25 µg/mL: MIC of antifungal in combination with KKOO-NH2 ([14]; +1 μg/mL KKOO-NH2) | MIC of antifungal in combination with KKOO ([14]; +1 μg/mL KKOO)
0.5 µg/mL: MIC [4] | MIC [10] | MIC of antifungal in combination with KKOO ([14]; +0 μg/mL KKOO (control)) | MIC of antifungal in combination with KKOO-NH2 ([14]; +0 μg/mL KKOO-NH2 (control))
